Assay results published in patent EP1200406B1, “CYCLIC AMIDES AND IMIDES HAVING SELECTIVE ANTAGONIST ACTIVITY AT ALPHA-1D ADRENERGIC RECEPTOR” (RECORDATI INDUSTRIA CHIMICA E FARMACEUTICA S.p.a., priority 1999, dated 2001).
Like-named read-outs stand apart in the source and are kept apart here.

Target: T1, human recombinant α1d adrenoceptor (Homo sapiens, UniProt P25100)
T1 construct: expressed in transfected cells; host or cells: CHO cells (membranes)
T1 sequence (P25100 1-572): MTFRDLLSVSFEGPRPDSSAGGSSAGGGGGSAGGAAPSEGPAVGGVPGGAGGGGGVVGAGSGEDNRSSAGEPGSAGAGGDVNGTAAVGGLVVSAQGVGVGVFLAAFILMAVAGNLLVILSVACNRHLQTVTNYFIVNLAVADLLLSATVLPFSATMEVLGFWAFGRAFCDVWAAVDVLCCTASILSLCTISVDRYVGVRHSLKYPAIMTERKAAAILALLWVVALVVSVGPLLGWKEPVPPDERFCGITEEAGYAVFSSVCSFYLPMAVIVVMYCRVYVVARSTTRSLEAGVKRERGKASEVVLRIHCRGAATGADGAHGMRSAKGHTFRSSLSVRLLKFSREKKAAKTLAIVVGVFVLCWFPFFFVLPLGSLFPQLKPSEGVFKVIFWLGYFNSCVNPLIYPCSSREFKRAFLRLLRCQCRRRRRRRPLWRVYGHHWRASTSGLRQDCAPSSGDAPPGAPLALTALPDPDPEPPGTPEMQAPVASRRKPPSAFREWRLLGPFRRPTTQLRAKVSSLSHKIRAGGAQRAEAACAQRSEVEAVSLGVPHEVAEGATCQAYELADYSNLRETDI
Experiment: Radioligand binding ([3H]prazosin) on membranes of CHO cells expressing cloned α1d adrenoceptor
Conditions: read-out: Affinity (Ki) α1d
Experimental: The determination of affinity for cloned subtypes of human α1 adrenergic receptors was performed in membranes from CHO cells (chinese hamster ovary cells) transfected by electroporation with DNA expressing the genes encoding each α1-adrenoceptor subtype, namely α1a, α1b and α1d.. Cloning and stable expression of the human α1-adrenoceptor gene were performed as previously described (Testa et al., Pharmacol. Comm. 6, 79-86 (1995)). CHO cell membranes were incubated in […] Tris pH 7.4 with 0.2 nM [^3H]prazosin, in a final volume of 1.02 ml for 30 minutes at 25°C, in the absence or presence of competing drugs (1 pM-10 µM). Non-specific binding was determined in the presence of 10 µM phentolamine. Incubation was stopped by addition of ice-cold Tris buffer and rapid filtration through 0.2% polyethyleneimine pretreated Schleicher & Schuell GF52 filters. […] The HeLa cells were grown as monolayers in Dulbecco's modified Eagle's medium (DMEM), supplemented with 10% foetal calf serum and gentamicin (100 µg/ml), 5% CO2, at 37°C. The cells were detached from the growth flask at 95% confluence by a cell scraper and were lysed in ice-cold 5 mM Tris and 5-mM EDTA buffer (pH 7.4). The homogenates were centrifuged at 40000 x g x 20 minutes and the membranes were re-suspended in a small volume of ice-cold 5 mM Tris and 5-mM EDTA buffer (pH 7.4) and immediately frozen and stored at -70°C until use. On the experiment day, the cell membranes were re-suspended in a buffer containing 50 mM Tris (pH 7.4), 2.5 mM MgCl2, 10 µM pargyline (Fargin et al., Nature 335, 358-360 (1988)). […] The incubation was stopped by addition of ice-cold Tris buffer and rapid filtration through 0.2%-polyethyleneimine-pretreated Schleicher & Schuell filters. The inhibition of specific binding of the radioligands by the drugs was analysed to estimate the IC50 value by using the non-linear curve-fitting programme Allfit (De Lean et al., Am. J. Physiol. 235, E97-E102 (1978)). The IC50 value was converted to an affinity constant (Ki) by the equation of Cheng & Prusoff (Biochem. Pharmacol. 22, 3099-3108 (1973)). Data were expressed as mean of Ki.

[1] = human cloned receptor, CHO cell membranes, 0.2 nM [3H]prazosin

Row | Ki [1] [nM] | Compound | Ki [nM]
1 | – | O=C1CCCC(=O)N1CCN1CCN(c2cc(Cl)ccc2Cl)CC1 [Example 2, 1-{2-[4-(2,5-Dichlorophenyl)-1-piperazinyl]-ethyl}-piperidinyl-2,6-dione] | 3.25
2 | 2.38 | Cc1ccc(F)c(N2CCN(CCN3C(=O)CC4(CCCC4)CC3=O)CC2)c1 [Example 4, 8-{2-[4-(2-Fluoro-5-methylphenyl)-1-piperazinyl]-ethyl}-8-azaspiro[4.5]decane-7,9-dione] | –
3 | 10.1 | Cc1ccc(C)c(N2CCN(CCN3C(=O)CC4(CCCC4)CC3=O)CC2)c1 [Example 5, 8-{2-[4-(2,5-Dimethylphenyl)-1-piperazinyl]-ethyl}-8-azaspiro[4.5]decane-7,9-dione] | –
4 | 7.56 | O=C1CC2(CCCC2)CC(=O)N1CCN1CCN(c2cc(C(F)(F)F)ccc2F)CC1 [Example 6, 8-{2-[4-(2-Fluoro-5-trifluoromethylphenyl)-1-piperazinyl]-ethyl}-8-azaspiro[4.5]decane-7,9-dione] | –
5 | 3.72 | O=C1CC2(CCCC2)CC(=O)N1CCN1CCN(c2cc(Br)ccc2Br)CC1 [Example 7, 8-{2-[4-(2,5-Dibromophenyl)-1-piperazinyl]-ethyl}-8-azaspiro[4.5]decane-7,9-dione] | –
6 | 0.2 | N#Cc1ccc(Cl)cc1N1CCN(CCN2C(=O)CC3(CCCC3)CC2=O)CC1 [Example 8, 8-{2-[4-(5-Chloro-2-cyanophenyl)-1-piperazinyl]-ethyl}-8-azaspiro[4.5]decane-7,9-dione] | –
7 | 0.18 | O=C1CC2(CCCC2)CC(=O)N1CCN1CCN(c2cc(F)ccc2Cl)CC1 [Example 9, 8-{2-[4-(2-Chloro-5-fluorophenyl)-1-piperazinyl]-ethyl}-8-azaspiro[4.5]decane-7,9-dione] | –
8 | 15.3 | O=C1CC2(CCCC2)CC(=O)N1CCN1CCN(c2cc(I)ccc2Cl)CC1 [Example 10, 8-{2-[4-(2-Chloro-5-iodophenyl)-1-piperazinyl]-ethyl}-8-azaspiro[4.5]decane-7,9-dione] | –
9 | 2.21 | O=C1CC2(CCCCC2)CC(=O)N1CCN1CCN(c2cc(Cl)ccc2Cl)CC1 [Example 11, 3-{2-[4-(2,5-Dichlorophenyl)-1-piperazinyl]-ethyl}-3-azaspiro[5.5]undecane-2,4-dione] | –
10 | 3.11 | O=C1CC2(CCCC2)C(=O)N1CCN1CCN(c2cc(Cl)ccc2Cl)CC1 [Example 14, 2-{2-[4-(2,5-Dichlorophenyl)-1-piperazinyl]-ethyl}-2-azaspiro[4.4]nonane-1,3-dione] | –
11 | 2.65 | O=C1CC2(CCC2)CC(=O)N1CCN1CCN(c2cc(Cl)ccc2Cl)CC1 [Example 15, 7-{2-[4-(2,5-Dichlorophenyl)-1-piperazinyl]-ethyl}-7-azaspiro[3.5]nonane-6,8-dione] | –
12 | 0.41 | CC(CN1CCN(c2cc(Cl)ccc2Cl)CC1)N1C(=O)CC2(CCCC2)CC1=O (centres unmarked) [Example 16, 8-{2-[4-(2,5-Dichlorophenyl)-1-piperazinyl]-1-methylethyl}-8-azaspiro[4.5]decane-7,9-dione] | –
13 | 1.5 | O=C1CC2(CCCC2)CC(=O)N1CCN1CCC(c2cc(Cl)ccc2Cl)CC1 [Example 17, 8-{2-[4-(2,5-Dichlorophenyl)-1-piperidinyl]-ethyl}-8-azaspiro[4.5]decane-7,9-dione] | –
14 | 16.4 | CN(CCN1C(=O)CC2(CCCC2)CC1=O)CCN(C)c1cc(Cl)ccc1Cl [Example 18, N-(2,5-Dichlorophenyl)-N'-{2-(7,9-dioxo-8-azaspiro[4.5]decane-8-yl)-ethyl}-N,N'-dimethyl-1,2-diaminoethane] | –
15 | – | O=C1CC2(C=CN1CCN1CCN(c3cc(Cl)ccc3Cl)CC1)CCCC2 [Example 20, 8-{2-[4-(2,5-Dichlorophenyl)-1-piperazinyl]-ethyl}-8-azaspiro[4.5]dec-9,10-en-7-one] | 1.43
16 | 0.31 | O=C1CC2(CCCC2)CCN1CCN1CCN(c2cc(F)c(F)cc2F)CC1 [Example 24, 8-{2-[4-(2,4,5-Trifluorophenyl)-1-piperazinyl]-ethyl}-8-azaspiro[4.5]decane-7-one] | –

Row | Compound | Ki [1] [nM] | Ki [nM]
17 | CCC1(C)CC(=O)N(CCN2CCN(c3cc(Cl)ccc3Cl)CC2)C(=O)C1 [Example 13, 1-{2-[4-(2,5-Dichlorophenyl)-1-piperazinyl]-ethyl}-4-ethyl-4-methylpiperidinyl-2,6-dione] | 1.23 | –
